Laboratory results: patent US8846951B2 (AbbVie Inc., priority 2009, dated 2014)

Tested on: conditioned avoidance response (CAR) behavior
Test: Conditioned avoidance responding in rats
Type: in vivo, rat
Details: male Wistar rats
Protocol: The fact that antipsychotics have the unique ability to selectively suppress CAR behavior, made the CAR test a useful tool for the screening of new, potentially antipsychotic compounds. […] Animals Male Wistar rats (9-11 weeks old, Charles River, Germany) were pair-housed and allowed ad-libitum access to food and water. A 12-hour light/dark cycle was imposed with lights-on period between 0530 and 1730 hours. All testing occurred between 700 and 1300 hours. All procedures were approved by Abbott Institutional Animal Care and Use Committee (USA) or Animal Welfare Officer (Germany) and were conducted in accordance with the National Institutes of Health Guide for Care and Use of Laboratory Animals guidelines and applicable national laws in the facilities accredited by the Association for the Assessment and Accreditation of Laboratory Animal Care. Methods Wistar rats are exposed to a conditioned stimulus CS (a 2.9-kHz tone of 10 second duration), which is a signal for the animal that it must move into the other chamber in order to avoid an immediately ensuing footshock US (0.5 mA, 10 second, tone continues during shock presentation). Once the shock has begun, the animal can still escape it by moving to the other chamber. Each session is limited to a maximum of 40 trials (intertrial interval 10-90 seconds). The animals generally learn quickly to change chambers upon the conditioned stimulus and thus avoid further shocks. Scored are: • Avoided responses=crossings into other compartment within 10 seconds of tone presentation; • Escaped responses=crossings between 10-20 seconds of tone presentation; • Failures=crossings after cessation of tone-shock presentation or no crossing. […] At the test sessions (=CS-shock pairings), animals are pre-treated with a test drug or vehicle 30 minutes before commencement of the session.

Q: What does the source list for `CN1C[C@@H]2CNC(=O)c3cc(-c4ccc(F)cc4)ccc3[C@H]2C1` [Example 115, (3aS,10bS)-8-(4-Fluorophenyl)-2-methyl-1,2,3,3a,4,5-hexahydrobenzo[e]pyrrolo[3,4-c]azepin-6(10bH)-one]?
A: conditioned avoidance behavior (avoided responses) (acute, 30 minutes before session): significantly suppressed conditioned avoidance behavior; number of failures (indicator of sedation or extrapyramidal side effects): without affecting the number of failures
